Data set [1] can be described thus: Solid-state stability of crystalline forms (XRPD). The data set is classed as physicochemical. The settings on record: for stability in air: XRPD. An excerpt:
Samples for X-ray powder diffraction (XRPD) data collection were gently ground by marble mortar and loaded into a crystallographic capillary (from Hampton Research, Quartz or Glass Type 10, 0.4 or 0.7 mm diameter). Diffraction patterns were collected at room temperature using CuKα radiation (λ=1.5418 Å) from a Rigaku rotating anode RU3HR, Osmic blue confocal optics, ¼ c goniometer and a Rigaku HTC image plate detector. 2D Images were collected while spinning φ axis with a detector to crystal distance of 250 mm. Data collection was controlled by CrystalClear software and 2D images were converted to 1D plot (2θ vs. Intensity) by Datasqueeze (intensity averaged over the azimuthal angle 0≦χ≦360° for […] 3-30° in 0.02° steps). In house program AstexXRPD was used for manipulation and visualisation of 1D XRPD patterns.

Data set [2] is described as follows: Hygroscopicity. Format: physicochemical.

Entries after “also recorded” stand apart in the source; their conditions may differ. Like-named read-outs stand apart in the source and are kept apart here.

As to `CC(C)c1cc(C(=O)N2Cc3ccc(CN4CCN(C)CC4)cc3C2)c(O)cc1O` [Form FB1, (2,4-dihydroxy-5-isopropyl-phenyl)-[5-(4-methyl-piperazin-1-ylmethyl)-1,3-dihydro-isoindol-2-yl]-methanone], the stability in air entry in data set [1] (listed as FB1) is “unstable in air and converts to form FB3; also recorded: converted completely to crystal form FB3”.

`CC(C)c1cc(C(=O)N2Cc3ccc(CN4CCN(C)CC4)cc3C2)c(O)cc1O` [Form FB2, (2,4-dihydroxy-5-isopropyl-phenyl)-[5-(4-methyl-piperazin-1-ylmethyl)-1,3-dihydro-isoindol-2-yl]-methanone]: in data set [1] (listed as FB2), the stability in air result is “unstable in air and converts to form FB3; also recorded: changed to crystal form FB3”.

As to `CC(C)c1cc(C(=O)N2Cc3ccc(CN4CCN(C)CC4)cc3C2)c(O)cc1O` [Form FB3, (2,4-dihydroxy-5-isopropyl-phenyl)-[5-(4-methyl-piperazin-1-ylmethyl)-1,3-dihydro-isoindol-2-yl]-methanone], the “stability at 40° C. and 75% RH” value in data set [1] was “stable in air at 40 °C and in 75% relative humidity for at least one month; also recorded: stable in air and at 40 °C and 75% RH for at least one month”. Moreover, the stability in air entry in data set [1] (listed as FB3) is “stable in air”.

For the compound `CC(C)c1cc(C(=O)N2Cc3ccc(CN4CCN(C)CC4)cc3C2)c(O)cc1O` [Form FB4, (2,4-dihydroxy-5-isopropyl-phenyl)-[5-(4-methyl-piperazin-1-ylmethyl)-1,3-dihydro-isoindol-2-yl]-methanone], the “stability of the crystalline form (stable / unstable form)” value (from here on “stability … (stable / unstable form)”) in data set [1] was “stable”. Further, in data set [1] (listed as FB4), the stability in air entry is “stable in air”.

Regarding `CC(C)c1cc(C(=O)N2Cc3ccc(CN4CCN(C)CC4)cc3C2)c(O)cc1O` [Form FB5, (2,4-dihydroxy-5-isopropyl-phenyl)-[5-(4-methyl-piperazin-1-ylmethyl)-1,3-dihydro-isoindol-2-yl]-methanone], the stability in air entry in data set [1] (listed as FB5) is “unstable in air; also recorded: transforms to FB6 in air; also recorded: conversion to form FB6”.

In the case of `CC(C)c1cc(C(=O)N2Cc3ccc(CN4CCN(C)CC4)cc3C2)c(O)cc1O` [Form FB6, (2,4-dihydroxy-5-isopropyl-phenyl)-[5-(4-methyl-piperazin-1-ylmethyl)-1,3-dihydro-isoindol-2-yl]-methanone], in data set [1] (listed as FB6), the stability in air entry is “stable in air; also recorded: stable on air”.

Consider `CC(C)c1cc(C(=O)N2Cc3ccc(CN4CCN(C)CC4)cc3C2)c(O)cc1O.Cl` [Form FH1, (2,4-dihydroxy-5-isopropyl-phenyl)-[5-(4-methyl-piperazin-1-ylmethyl)-1,3-dihydro-isoindol-2-yl]-methanone hydrochloride salt], for which the hygroscopicity entry in data set [2] was “very hygroscopic and dissolves in air moisture”. The stability in air entry in data set [1] (listed as FH1, hydrochloride salt) is “unstable in air”.

As for `CC(C)c1cc(C(=O)N2Cc3ccc(CN4CCN(C)CC4)cc3C2)c(O)cc1O.Cl` [Form FH2, (2,4-dihydroxy-5-isopropyl-phenyl)-[5-(4-methyl-piperazin-1-ylmethyl)-1,3-dihydro-isoindol-2-yl]-methanone hydrochloride salt], the stability in air entry in data set [1] (listed as FH2, hydrochloride salt) is listed as “unstable in air; also recorded: transforms on air into form FH3; also recorded: conversion to form FH3”.

Regarding `CC(C)c1cc(C(=O)N2Cc3ccc(CN4CCN(C)CC4)cc3C2)c(O)cc1O.Cl` [Form FH3, (2,4-dihydroxy-5-isopropyl-phenyl)-[5-(4-methyl-piperazin-1-ylmethyl)-1,3-dihydro-isoindol-2-yl]-methanone hydrochloride salt], in data set [1], the “stability at 40° C. and 75% RH” value is “stable in air and at 40 °C and 75% RH for at least one month”. Moreover, in data set [1] (listed as FH3, hydrochloride salt), the stability in air result is on record as “stable in air”.

On to `CC(C)c1cc(C(=O)N2Cc3ccc(CN4CCN(C)CC4)cc3C2)c(O)cc1O.Cl` [Form FH4, (2,4-dihydroxy-5-isopropyl-phenyl)-[5-(4-methyl-piperazin-1-ylmethyl)-1,3-dihydro-isoindol-2-yl]-methanone hydrochloride salt], for which the stability in air entry in data set [1] (listed as FH4, hydrochloride salt) is “unstable and disintegrates in air”.

`CC(C)c1cc(C(=O)N2Cc3ccc(CN4CCN(C)CC4)cc3C2)c(O)cc1O.Cl` [Form FH5, (2,4-dihydroxy-5-isopropyl-phenyl)-[5-(4-methyl-piperazin-1-ylmethyl)-1,3-dihydro-isoindol-2-yl]-methanone hydrochloride salt]: in data set [1] (listed as FH5, hydrochloride salt), the stability in air result was “unstable and dissolves in moist air”.

Consider `CC(C)c1cc(C(=O)N2Cc3ccc(CN4CCN(C)CC4)cc3C2)c(O)cc1O.C[C@H](O)C(=O)O` [Form FL1, (2,4-dihydroxy-5-isopropyl-phenyl)-[5-(4-methyl-piperazin-1-ylmethyl)-1,3-dihydro-isoindol-2-yl]-methanone L-lactate salt], for which the “stability at 40° C. and 75% RH” value in data set [1] is “stable in air and at 40 °C and 75% RH for at least one month”. In addition, the stability in air result in data set [1] (listed as FL) is recorded as “stable in air”. The “stability … (stable / unstable form)” value in data set [1] (listed as FL1) is reported as “stable forms”.

`CC(C)c1cc(C(=O)N2Cc3ccc(CN4CCN(C)CC4)cc3C2)c(O)cc1O.C[C@H](O)C(=O)O` [Form FL2, (2,4-dihydroxy-5-isopropyl-phenyl)-[5-(4-methyl-piperazin-1-ylmethyl)-1,3-dihydro-isoindol-2-yl]-methanone L-lactate salt]: in data set [1] (listed as FL2), the stability in air entry is reported as “stable in air” and the “stability … (stable / unstable form)” value is recorded as “stable forms”.

`CC(C)c1cc(C(=O)N2Cc3ccc(CN4CCN(C)CC4)cc3C2)c(O)cc1O.C[C@H](O)C(=O)O` [Form FL3, (2,4-dihydroxy-5-isopropyl-phenyl)-[5-(4-methyl-piperazin-1-ylmethyl)-1,3-dihydro-isoindol-2-yl]-methanone L-lactate salt]: in data set [1] (listed as FL3), the stability in air result was “transforms in air into form FL1; also recorded: conversion to form FL1” and the “stability … (stable / unstable form)” value is listed as “unstable form”.

In the case of `CC(C)c1cc(C(=O)N2Cc3ccc(CN4CCN(C)CC4)cc3C2)c(O)cc1O.O=S(=O)(O)O` [Form FS1, (2,4-dihydroxy-5-isopropyl-phenyl)-[5-(4-methyl-piperazin-1-ylmethyl)-1,3-dihydro-isoindol-2-yl]-methanone sulphate salt], in data set [1] (listed as FS1, sulphate salt), the stability in air entry is “unstable on air and transforms to form FS3”; the “stability … (stable / unstable form)” value is listed as “unstable forms”.

For the compound `CC(C)c1cc(C(=O)N2Cc3ccc(CN4CCN(C)CC4)cc3C2)c(O)cc1O.O=S(=O)(O)O` [Form FS2, (2,4-dihydroxy-5-isopropyl-phenyl)-[5-(4-methyl-piperazin-1-ylmethyl)-1,3-dihydro-isoindol-2-yl]-methanone sulphate salt], in data set [1] (listed as FS2, sulphate salt), the “stability at 40° C. and 75% RH” value was “transforms to form FS4”; the stability in air result is “unstable on air and transforms to form FS5”; the “stability … (stable / unstable form)” value is recorded as “unstable forms”.

For the compound `CC(C)c1cc(C(=O)N2Cc3ccc(CN4CCN(C)CC4)cc3C2)c(O)cc1O.O=S(=O)(O)O` [Form FS3, (2,4-dihydroxy-5-isopropyl-phenyl)-[5-(4-methyl-piperazin-1-ylmethyl)-1,3-dihydro-isoindol-2-yl]-methanone sulphate salt], in data set [1] (listed as FS3, sulphate salt), the “stability … (stable / unstable form)” value is recorded as “stable form”.

Take `CC(C)c1cc(C(=O)N2Cc3ccc(CN4CCN(C)CC4)cc3C2)c(O)cc1O.O=S(=O)(O)O` [Form FS4, (2,4-dihydroxy-5-isopropyl-phenyl)-[5-(4-methyl-piperazin-1-ylmethyl)-1,3-dihydro-isoindol-2-yl]-methanone sulphate salt]: the “stability in a dry environment” value in data set [1] (20° C., 11% RH) was “transformation of form FS4 in a dry environment”. Besides, the “stability … (stable / unstable form)” value in data set [1] (listed as FS4, sulphate salt) is given as “stable form”.

`CC(C)c1cc(C(=O)N2Cc3ccc(CN4CCN(C)CC4)cc3C2)c(O)cc1O.O=S(=O)(O)O` [Form FS5, (2,4-dihydroxy-5-isopropyl-phenyl)-[5-(4-methyl-piperazin-1-ylmethyl)-1,3-dihydro-isoindol-2-yl]-methanone sulphate salt]: the “stability … (stable / unstable form)” value in data set [1] (listed as FS5, sulphate salt) was “stable forms”; in data set [1] (listed as FS53, sulphate salt), “stable form”.

With `CC(C)c1cc(C(=O)N2Cc3ccc(CN4CCN(C)CC4)cc3C2)c(O)cc1O.O=S(=O)(O)O` [Form FS6, (2,4-dihydroxy-5-isopropyl-phenyl)-[5-(4-methyl-piperazin-1-ylmethyl)-1,3-dihydro-isoindol-2-yl]-methanone sulphate salt], in data set [1] (listed as FS6, sulphate salt), the “stability at 40° C. and 75% RH” value was “transforms into form FS3”; the stability in air result is “stable in air”; the “stability … (stable / unstable form)” value was “stable forms”.

The values above are taken from patent US9428439B2, “Hydrobenzamide derivatives as inhibitors of Hsp90” (priority 2006, dated 2016).
